The source of these data is patent US10137122B2, “Kinase inhibitors and methods of use thereof” (priority 2012, dated 2018).

Data set [1] concerns TCF/LEF reporter in HEK293-pBARL cells. The conditions noted are these: read-out: TCF/LEF EC50.
Data set [2] concerns β-catenin nuclear translocation in U2-OS cells. The data set is described as follows: β-Catenin nuclear localization assay. The conditions noted are these: read-out: beta-Catenin translocation EC50. It is filed as cell-based.
Method: β-Catenin Nuclear Localization Assay
U2-OS cells stably expressing two complimentary β-galactosidase fragments (one part on β-Catenin and the other constitutively expressed in the cell nucleus) were maintained in DMEM F12 supplemented with 10% FBS. When β-catenin translocates to the nucleus, the complimentary fragments form a complete β-galactosidase, the amount of which is then quantified by β-galactosidase activity (DiscoveRx). Cells were seeded in a 384-well CulturPlate (Perkin Elmer, Boston, Mass.) with 10,000 per well in 20 μL DMEM F12 containing 10% FCS, 100 U/ml penicillin and 100 μg/mL streptomycin. After overnight incubation at 37° C., cells were stimulated with 100 nL test compound/well and then returned to the incubator for 6 h. Cells were disrupted using 12 μL substrate-containing lysis buffer from the PathHunter Detection Kit in the formulation specified by the supplier (DiscoveRx). Plates were incubated in the dark for 1 h at room temperature before measurement of β-galactosidase activity (luminescence) on an EnVision plate reader (PerkinElmer, Waltham, Mass.).
In the next data set the target is CDK5/p25 (Homo sapiens (Human), UniProt Q00535).
Chain of CDK5/p25 (Q00535 whole entry, species assumed): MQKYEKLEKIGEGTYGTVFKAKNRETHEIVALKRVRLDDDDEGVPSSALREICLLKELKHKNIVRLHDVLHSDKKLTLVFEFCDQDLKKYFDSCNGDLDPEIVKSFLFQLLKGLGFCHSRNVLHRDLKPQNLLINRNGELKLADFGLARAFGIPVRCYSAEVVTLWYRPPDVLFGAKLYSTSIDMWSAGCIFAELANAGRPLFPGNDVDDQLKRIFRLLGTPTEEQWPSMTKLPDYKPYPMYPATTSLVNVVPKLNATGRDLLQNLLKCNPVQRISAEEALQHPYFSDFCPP
Chain of CDK5/p25 (Q15078 99-307 partner, species assumed): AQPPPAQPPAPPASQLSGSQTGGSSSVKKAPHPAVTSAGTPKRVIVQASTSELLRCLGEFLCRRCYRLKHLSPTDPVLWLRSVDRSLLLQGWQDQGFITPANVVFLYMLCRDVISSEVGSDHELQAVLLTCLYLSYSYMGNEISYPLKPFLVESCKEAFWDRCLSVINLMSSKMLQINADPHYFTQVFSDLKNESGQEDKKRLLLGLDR
Another data set deals with GSK3α (Homo sapiens (Human), UniProt P49840).
Chain of GSK3α (P49840 whole entry): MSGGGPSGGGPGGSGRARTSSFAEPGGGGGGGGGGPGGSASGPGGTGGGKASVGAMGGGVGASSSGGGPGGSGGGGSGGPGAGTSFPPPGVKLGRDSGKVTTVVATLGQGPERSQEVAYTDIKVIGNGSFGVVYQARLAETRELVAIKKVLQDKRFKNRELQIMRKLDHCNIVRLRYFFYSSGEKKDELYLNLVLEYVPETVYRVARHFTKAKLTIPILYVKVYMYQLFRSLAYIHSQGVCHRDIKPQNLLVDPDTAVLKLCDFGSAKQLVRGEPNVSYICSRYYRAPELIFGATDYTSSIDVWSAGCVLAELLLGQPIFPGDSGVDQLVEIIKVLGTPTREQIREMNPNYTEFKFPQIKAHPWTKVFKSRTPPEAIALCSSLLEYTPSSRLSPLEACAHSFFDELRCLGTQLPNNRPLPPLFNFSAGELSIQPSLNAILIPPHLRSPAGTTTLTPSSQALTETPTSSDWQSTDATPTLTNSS
Data set [3] deals with TCF/LEF reporter in HEK293-pBARL cells. As to the kind of experiment: cells. As to conditions: Homo sapiens.
Data set [4] deals with phospho-Tau (Ser199) in SH-SY5Y cells. As to the kind of experiment: Tau phosphorylation assay (phospho-Tau Ser199 ELISA). It is filed as cell-based, human. As to conditions: read-out: p-Tau Inhibition ELISA EC50 SH-SY5Y.
Method: Tau Phosphorylation and Total Tau Assay
SH-SY5Y cells were maintained in DMEM supplemented with 10% heat-inactivated FBS and 1% penicillin-streptomycin (Invitrogen) unless otherwise stated. ELISA kits for phospho-Tau (Ser199) and total Tau detection were purchased from Invitrogen (KHB0041, and KHB7041 respectively). Briefly, SH-SY5Y cells were seeded at 50,000 cells/200 μL/well in 96 well plates and after overnight incubation, treated with various doses of chemical compounds at 0.2 μL/well. The next day cells were washed with PBS twice before being lysed in 100 μL Lysis buffer/well. 50 μL of cell lysate of each sample was transferred to an ELISA vial coated with the capture antibody, and the mixture was incubated at room temperature for 2 hours, before the supernatant was aspired, and each vial washed four times. 100 μL of detection antibody was then added to each well, incubated for 1 hour, and then washed four times. […] Data were scaled using the positive and neutral controls and fitted for IC50.
A standard protocol using an immunoassay kit to quantify total Tau protein and phospho-Tau (Ser199) protein in SH-SY5Y human neuroblastoma cells was employed. Human Tau (Total) ELISA kit (#KHB0041) and human phosphor-Tau (Ser199) ELISA kit were purchased from Invitrogen (#KHB7041)
50,000 cells were seeded in 200 μl per well in cell culture media (250,000 cells/ml). Cells were incubated overnight @37° C. Cells were induced with appropriate doses of inhibitors and incubated for approximately 24 hrs @37° C. Cell lysates were harvested by washing cells once with cold PBS and adding 100 μl cold lysis buffer and pipette up and down vigorously. Lysate was transferred to 96 well PCR plate and centrifuged at 4,000 rpm for 20 minutes at 4° C.
Well strips were warmed and inserted into the frame. 100μ of standard diluent buffer were loaded into ZERO wells, and 100 ul of each standard concentrations (both total Tau and pTau) were loaded into wells in duplicate. Samples were loaded to each well that would be analyzed for total Tau, 85 μl standard diluent buffer and 15 μl cell lysate were added. To each well that will be analyzed for pTau (Ser199) 50 μl standard diluent buffer+50 μl cell lysate were added. Plates were tapped gently on the side to mix. Certain wells were left empty for chromogen blank. Plates were covered and incubated for 2 hours at room temperature. Wells were aspirated 4 times (400 μl diluted wash buffer, left for 30 seconds, aspirated all wells; alternatively used automated plate washer and programmed in a 30 second hold between each cycle). 100 μl of detection antibody solution were added to each well except chromogen blanks. Anti-total Tau was added to wells being analyzed for total Tau, anti-pTau (Ser199) was added to wells being analyzed for pTau (Ser199), and plates were tapped gently on the side to mix. Plates were covered and incubated for 1 hour at room temperature, then wells were aspirated and washed 4 times as described above. 100 μl of anti-rabbit IgG HRP working solution (prepared ahead) were added to each well except chromogen blanks, and plates were covered and incubated for 30 minutes at room temperature, then wells were aspirated and washed 4 times as described above. 100 μl of stabilized chromogen were added to each well (the liquid turned blue). Plates were incubates for 30 minutes at room temperature in the dark, then 100 μl of stop solution were added to each well, and plates were tapped gently on the side to mix. Absorbance of each well was read at 450 nm (within 2 hours of adding stop solution).
For data set [5] the following is noted: mouse plasma, 5 hours.
For data set [6] the following is noted: mouse, microsomes, 1 h.
Setting [7] is: HEK293, read-out: TCF/LEF EC50 (μM).

Broadly, the IC50 is the concentration at which inhibition is half-maximal. A high value points to weaker potency in that assay.

Read-outs that look alike come from different tables or passages of the source.

Method for CDK5/p25: Biochemical characterization of these synthesized compounds were assayed against GSK3β and CDK5/p25, with CDK5/p25 serving as a counter target of GSK3β selectivity. […] The effects of these compounds on survival of SH-SY5Y pathophysiology cells were also monitored.
Method for GSK3α: GSK3β Microfluidic Mobility-Shift Assay
Reactions were terminated by the addition of 10 mM EDTA. Substrate and product were separated electrophoretically and fluorescence intensity of the substrate and product was determined by Labchip EZ Reader II (Caliper Life Sciences, MA). The kinase activity was measured as percent conversion. The reactions were performed in duplicate for each sample. […] The results were analyzed by Genedata Assay Analyzer. The percent inhibition was plotted against the compound concentration and the IC50 value was determined from the logistic dose-response curve fitting.

As to `CC1(C)CC(=O)C2=C(C1)Nc1n[nH]c(C(F)(F)F)c1C2c1ccccc1F` (stereo not drawn) [Compound 58], the EC50 in data set [1] is more than 25 µM.
`COc1ccccc1C1C2=C(CC(C)(C)CC2=O)Nc2n[nH]c(C(C)C)c21` (stereo not drawn) [Compound 49]: the EC50 was more than 25 µM in data set [1] and more than 50 µM in data set [2]. Moreover, the “ADP Glo Assay GSK3β vs CDK5 fold selectivity” value at CDK5/p25 came to 14X.
`COc1ccccc1C1C2=C(CCC(C)(C)C2=O)Nc2n[nH]c(C)c21` (stereo not drawn) [Compound 45]: the EC50 is more than 25 µM in data set [1] and more than 50 µM in data set [2]. Further, the “ADP Glo Assay GSK3β vs CDK5 fold selectivity” value on CDK5/p25 is on record as 20X.
As to `COc1ccccc1C1C2=C(CC(C)(C)CC2=O)Nc2n[nH]c(C(C)(C)C)c21` (stereo not drawn) [Compound 50], the EC50 in data set [1] was more than 25 µM; in data set [2], more than 50 µM.
In the case of `Cc1[nH]nc2c1C(C)C1=C(CC(C)(C)CC1=O)N2` (stereo not drawn) [Compound 42], the EC50 in data set [1] is more than 25 µM; in data set [2], more than 50 µM. Further, the “ADP Glo Assay GSK3β vs CDK5 fold selectivity” value at CDK5/p25 was determined as 23X.
`Cc1ccccc1C1C2=C(CC(C)(C)CC2=O)Nc2n[nH]c(C)c21` (stereo not drawn) [Compound 17, 3,7,7-trimethyl-4-(o-tolyl)-6,7,8,9-tetrahydro-2H-pyrazolo[3,4-b]quinolin-5(4H)-one]: the EC50 was more than 50 µM in data set [2] (Homo sapiens, U2OS) and more than 25 µM in data set [3] (setting [7]). Further, the IC50 against GSK3α is less than 0.1 µM. The “ADP Glo Assay GSK3β vs CDK5 fold selectivity” value on CDK5/p25 came to 14X.
In the case of `CC1(C)CC(=O)C2=C(C1)Nc1n[nH]c(C(F)(F)F)c1C2c1cc(F)ccc1OC(F)(F)F` (stereo not drawn) [Compound 61], the EC50 in data set [1] is more than 25 µM.
For `Cc1[nH]nc2c1C(c1cccc(C(F)(F)F)c1)C1=C(CC(C)(C)CC1=O)N2` (stereo not drawn) [Compound 30, 3,7,7-trimethyl-4-(3-(trifluoromethyl)phenyl)-6,7,8,9-tetrahydro-2H-pyrazolo[3,4-b]quinolin-5(4H)-one], the EC50 in data set [4] (Homo sapiens, SH-SY5Y) is 4.68 µM; in data set [2] (Homo sapiens, U2OS), 11.2 µM; in data set [3] (setting [7]), 7.67 µM.
As to `CC1(C)CC(=O)C2=C(C1)Nc1n[nH]cc1[C@]2(C)c1ccccc1` (racemic) [Compound 108], in data set [5], the “Plasma stability % remaining” value was 96.6%.
In the case of `CCc1[nH]nc2c1C(c1ccccc1OC)C1=C(CC(C)(C)CC1=O)N2` (stereo not drawn) [Compound 48], on CDK5/p25, the “ADP Glo Assay GSK3β vs CDK5 fold selectivity” value came out at 35X.
For `Cc1[nH]nc2c1C(C1CC1)C1=C(CC(C)(C)CC1=O)N2` (stereo not drawn) [Compound 43], the EC50 was more than 30 µM in data set [4], more than 25 µM in data set [1] and more than 50 µM in data set [2].
Consider `CSc1ccccc1C1C2=C(CC(C)(C)CC2=O)Nc2n[nH]c(C)c21` (stereo not drawn) [Compound 25, 3,7,7-trimethyl-4-(2-(methylthio)phenyl)-6,7,8,9-tetrahydro-2H-pyrazolo[3,4-b]quinolin-5(4H)-one], for which the EC50 in data set [4] (Homo sapiens, SH-SY5Y) is 2.85 µM; in data set [2] (Homo sapiens, U2OS), 10.9 µM; in data set [3] (setting [7]), 4.34 µM.
Turning to `Cc1[nH]nc2c1C(c1ccccc1C(F)(F)F)C1=C(CC(C)(C)CC1=O)N2` (racemic) [Compound 27, 3,7,7-trimethyl-4-(2-(trifluoromethyl)phenyl)-6,7,8,9-tetrahydro-2H-pyrazolo[3,4-b]quinolin-5(4H)-one], the EC50 in data set [4] (Homo sapiens, SH-SY5Y) was 4.24 µM; in data set [2] (Homo sapiens, U2OS), 12 µM; in data set [3] (setting [7]), 9.59 µM. The “ADP Glo Assay GSK3β vs CDK5 fold selectivity” value on CDK5/p25 came out at 34X.
For the compound `Cc1[nH]nc2c1C(c1cccc(C#N)c1)C1=C(CC(C)(C)CC1=O)N2` (stereo not drawn) [Compound 33, 3-(3,7,7-trimethyl-5-oxo-4,5,6,7,8,9-hexahydro-2H-pyrazolo[3,4-b]quinolin-4-yl)benzonitrile], the EC50 in data set [4] (Homo sapiens, SH-SY5Y) came out at 2.5 µM; in data set [2] (Homo sapiens, U2OS), 12 µM; in data set [3] (setting [7]) it was 5.16 µM.
Turning to `COc1ccccc1C1C2=C(CC(C)(C)CC2=O)Nc2n[nH]cc21` (stereo not drawn) [Compound 47], the “ADP Glo Assay GSK3β vs CDK5 fold selectivity” value at CDK5/p25 came out at 34X.
In the case of `Cc1[nH]nc2c1C(C)(c1cccc(C#N)c1)C1=C(CC(C)(C)CC1=O)N2` (racemic) [Compound 95, 3-(1,6,6,9-tetramethyl-8-oxo-4,5,6,7,8,9-hexahydro-2H-pyrazolo[3,4-b]quinolin-9-yl)benzonitrile], in data set [4] (Homo sapiens, SH-SY5Y), the EC50 was determined as 6.35 µM. Besides, the “Plasma stability % remaining” value in data set [5] is reported as 99.0%.
Consider `Cc1[nH]nc2c1C(c1ccccc1Br)C1=C(CC(C)(C)CC1=O)N2` (stereo not drawn) [Compound 16], for which the “ADP Glo Assay GSK3β vs CDK5 fold selectivity” value on CDK5/p25 is on record as 14X.
Consider `COc1ccccc1C1C2=C(CC(C)(C)CC2=O)Nc2n[nH]c(-c3ccccc3)c21` (stereo not drawn) [Compound 51], for which the EC50 in data set [1] is more than 25 µM; in data set [2] it was more than 50 µM.
Regarding `Cc1[nH]nc2c1C(c1cccc3nonc13)C1=C(CC(C)(C)CC1=O)N2` (stereo not drawn) [Compound 41, 4-(benzo[c][1,2,5]oxadiazol-4-yl)-3,7,7-trimethyl-6,7,8,9-tetrahydro-2H-pyrazolo[3,4-b]quinolin-5(4H)-one], the EC50 in data set [4] (Homo sapiens, SH-SY5Y) came to 2.27 µM; in data set [2] (Homo sapiens, U2OS) it was 11.8 µM; in data set [3] (setting [7]), 6.7 µM. This compound also gave an IC50 against GSK3α of less than 0.1 µM. For the same compound, the “ADP Glo Assay GSK3β vs CDK5 fold selectivity” value at CDK5/p25 was 51X.
As to `CC1(C)CC(=O)C2=C(C1)Nc1n[nH]c(C(F)(F)F)c1C2c1ccc(F)cc1C(F)(F)F` (stereo not drawn) [Compound 65], the EC50 in data set [1] was more than 25 µM. The “ADP Glo Assay GSK3β vs CDK5 fold selectivity” value on CDK5/p25 worked out at 130X.
Consider `COc1ccccc1[C@H]1C2=C(CC(C)(C)CC2=O)Nc2n[nH]c(C(F)(F)F)c21` [Compound 55, (S)-4-(2-methoxyphenyl)-7,7-dimethyl-3-(trifluoromethyl)-6,7,8,9-tetrahydro-2H-pyrazolo[3,4-b]quinolin-5(4H)-one], for which the EC50 in data set [4] (Homo sapiens) was more than 30 µM; in data set [2] (Homo sapiens, U2OS) it was more than 50 µM; in data set [3] (HEK293, read-out: TCF/LEF EC50 (μM), HEK293 reporter cells), more than 25 µM.
Regarding `COc1ccccc1C1C2=C(CC3(CCCCC3)CC2=O)Nc2n[nH]c(C)c21` (stereo not drawn) [Compound 56], the EC50 is more than 25 µM in data set [1] and more than 50 µM in data set [2].
As to `Cc1[nH]nc2c1C(c1ccccc1)(C(F)(F)F)C1=C(CC(C)(C)CC1=O)N2` (stereo not drawn) [Compound 83], the “Microsomal stability 60 min” value in data set [6] stood at 51.5%.
As to `CC1(C)CC(=O)C2=C(C1)Nc1n[nH]c(C(F)(F)F)c1C2c1cc(F)ccc1C(F)(F)F` (stereo not drawn) [Compound 64], in data set [1], the EC50 was more than 25 µM.
Regarding `Cc1[nH]nc2c1C(C1CCCCC1)C1=C(CC(C)(C)CC1=O)N2` (stereo not drawn) [Compound 44], the figures for the EC50 in data set [1] and in data set [2] were more than 25 µM and more than 50 µM, respectively.
Consider `Cc1[nH]nc2c1C(c1ccccc1Cl)C1=C(CC(C)(C)CC1=O)N2` (stereo not drawn) [Compound 13, 4-(2-chlorophenyl)-3,7,7-trimethyl-6,7,8,9-tetrahydro-2H-pyrazolo[3,4-b]quinolin-5(4H)-one], for which the EC50 in data set [4] (Homo sapiens, SH-SY5Y) came out at 2.49 µM; in data set [2] (Homo sapiens, U2OS), 41.1 µM; in data set [3] (setting [7]) it was 24 µM.
As for `CC1(C)CC(=O)C2=C(C1)Nc1n[nH]c(C(F)(F)F)c1C2(C)c1ccccc1` (racemic) [Compound 68, 4,7,7-trimethyl-4-phenyl-3-(trifluoromethyl)-6,7,8,9-tetrahydro-2H-pyrazolo[3,4-b]quinolin-5(4H)-one], the EC50 was 10.8 µM in data set [2] (Homo sapiens, U2OS) and 7.77 µM in data set [3] (setting [7]). At CDK5/p25, the “ADP Glo Assay GSK3β vs CDK5 fold selectivity” value came out at 244X.
`Cc1[nH]nc2c1[C@H](c1ccccc1C(F)(F)F)C1=C(CC(C)(C)CC1=O)N2` (stereo in doubt) [Compound 28, 3,7,7-trimethyl-4-(2-(trifluoromethyl)phenyl)-6,7,8,9-tetrahydro-2H-pyrazolo[3,4-b]quinolin-5(4H)-one]: the EC50 in data set [4] (Homo sapiens, SH-SY5Y) amounted to 1.8 µM; in data set [2] (Homo sapiens, U2OS) it was 6.32 µM; in data set [3] (setting [7]), 4.8 µM.
As to `COc1ccccc1C1C2=C(CCCC2=O)Nc2n[nH]c(C)c21` (stereo not drawn) [Compound 46], the figures for the EC50 in data set [1] and in data set [2] were more than 25 µM and more than 50 µM, respectively. The “ADP Glo Assay GSK3β vs CDK5 fold selectivity” value at CDK5/p25 is 6X.
For the compound `CC1(C)CC(=O)C2=C(C1)Nc1n[nH]c(C3CC3)c1C2(C)c1ccccc1` (racemic) [Compound 113], in data set [4] (Homo sapiens, SH-SY5Y), the EC50 was determined as 4.8 µM. In data set [5], the “Plasma stability % remaining” value is 90.5%.
As for `CC1(C)CC(=O)C2=C(C1)Nc1n[nH]c(C(F)(F)F)c1C2c1cc(F)ccc1F` (stereo not drawn) [Compound 60], the EC50 in data set [1] was more than 25 µM.
